Source: ChEMBL document CHEMBL4507268 (2021)

Experiments:
[1] = molecular target: D(2) dopamine receptor (Homo sapiens) (UniProt P14416); details: Compound concentration 10.0 uM
[2] = molecular target: Sodium-dependent noradrenaline transporter (Homo sapiens) (UniProt P23975); details: Compound concentration 10.0 uM
[3] = molecular target: Vascular endothelial growth factor receptor 1 (Homo sapiens) (UniProt P17948); details: Compound concentration 1.0 uM
[4] = molecular target: Serine/threonine-protein kinase WNK1 (Homo sapiens) (UniProt Q9H4A3); details: Compound concentration 1.0 uM
Chain of Serine/threonine-protein kinase WNK1 (Homo sapiens) (Q9H4A3 whole entry, looked up, canonical isoform): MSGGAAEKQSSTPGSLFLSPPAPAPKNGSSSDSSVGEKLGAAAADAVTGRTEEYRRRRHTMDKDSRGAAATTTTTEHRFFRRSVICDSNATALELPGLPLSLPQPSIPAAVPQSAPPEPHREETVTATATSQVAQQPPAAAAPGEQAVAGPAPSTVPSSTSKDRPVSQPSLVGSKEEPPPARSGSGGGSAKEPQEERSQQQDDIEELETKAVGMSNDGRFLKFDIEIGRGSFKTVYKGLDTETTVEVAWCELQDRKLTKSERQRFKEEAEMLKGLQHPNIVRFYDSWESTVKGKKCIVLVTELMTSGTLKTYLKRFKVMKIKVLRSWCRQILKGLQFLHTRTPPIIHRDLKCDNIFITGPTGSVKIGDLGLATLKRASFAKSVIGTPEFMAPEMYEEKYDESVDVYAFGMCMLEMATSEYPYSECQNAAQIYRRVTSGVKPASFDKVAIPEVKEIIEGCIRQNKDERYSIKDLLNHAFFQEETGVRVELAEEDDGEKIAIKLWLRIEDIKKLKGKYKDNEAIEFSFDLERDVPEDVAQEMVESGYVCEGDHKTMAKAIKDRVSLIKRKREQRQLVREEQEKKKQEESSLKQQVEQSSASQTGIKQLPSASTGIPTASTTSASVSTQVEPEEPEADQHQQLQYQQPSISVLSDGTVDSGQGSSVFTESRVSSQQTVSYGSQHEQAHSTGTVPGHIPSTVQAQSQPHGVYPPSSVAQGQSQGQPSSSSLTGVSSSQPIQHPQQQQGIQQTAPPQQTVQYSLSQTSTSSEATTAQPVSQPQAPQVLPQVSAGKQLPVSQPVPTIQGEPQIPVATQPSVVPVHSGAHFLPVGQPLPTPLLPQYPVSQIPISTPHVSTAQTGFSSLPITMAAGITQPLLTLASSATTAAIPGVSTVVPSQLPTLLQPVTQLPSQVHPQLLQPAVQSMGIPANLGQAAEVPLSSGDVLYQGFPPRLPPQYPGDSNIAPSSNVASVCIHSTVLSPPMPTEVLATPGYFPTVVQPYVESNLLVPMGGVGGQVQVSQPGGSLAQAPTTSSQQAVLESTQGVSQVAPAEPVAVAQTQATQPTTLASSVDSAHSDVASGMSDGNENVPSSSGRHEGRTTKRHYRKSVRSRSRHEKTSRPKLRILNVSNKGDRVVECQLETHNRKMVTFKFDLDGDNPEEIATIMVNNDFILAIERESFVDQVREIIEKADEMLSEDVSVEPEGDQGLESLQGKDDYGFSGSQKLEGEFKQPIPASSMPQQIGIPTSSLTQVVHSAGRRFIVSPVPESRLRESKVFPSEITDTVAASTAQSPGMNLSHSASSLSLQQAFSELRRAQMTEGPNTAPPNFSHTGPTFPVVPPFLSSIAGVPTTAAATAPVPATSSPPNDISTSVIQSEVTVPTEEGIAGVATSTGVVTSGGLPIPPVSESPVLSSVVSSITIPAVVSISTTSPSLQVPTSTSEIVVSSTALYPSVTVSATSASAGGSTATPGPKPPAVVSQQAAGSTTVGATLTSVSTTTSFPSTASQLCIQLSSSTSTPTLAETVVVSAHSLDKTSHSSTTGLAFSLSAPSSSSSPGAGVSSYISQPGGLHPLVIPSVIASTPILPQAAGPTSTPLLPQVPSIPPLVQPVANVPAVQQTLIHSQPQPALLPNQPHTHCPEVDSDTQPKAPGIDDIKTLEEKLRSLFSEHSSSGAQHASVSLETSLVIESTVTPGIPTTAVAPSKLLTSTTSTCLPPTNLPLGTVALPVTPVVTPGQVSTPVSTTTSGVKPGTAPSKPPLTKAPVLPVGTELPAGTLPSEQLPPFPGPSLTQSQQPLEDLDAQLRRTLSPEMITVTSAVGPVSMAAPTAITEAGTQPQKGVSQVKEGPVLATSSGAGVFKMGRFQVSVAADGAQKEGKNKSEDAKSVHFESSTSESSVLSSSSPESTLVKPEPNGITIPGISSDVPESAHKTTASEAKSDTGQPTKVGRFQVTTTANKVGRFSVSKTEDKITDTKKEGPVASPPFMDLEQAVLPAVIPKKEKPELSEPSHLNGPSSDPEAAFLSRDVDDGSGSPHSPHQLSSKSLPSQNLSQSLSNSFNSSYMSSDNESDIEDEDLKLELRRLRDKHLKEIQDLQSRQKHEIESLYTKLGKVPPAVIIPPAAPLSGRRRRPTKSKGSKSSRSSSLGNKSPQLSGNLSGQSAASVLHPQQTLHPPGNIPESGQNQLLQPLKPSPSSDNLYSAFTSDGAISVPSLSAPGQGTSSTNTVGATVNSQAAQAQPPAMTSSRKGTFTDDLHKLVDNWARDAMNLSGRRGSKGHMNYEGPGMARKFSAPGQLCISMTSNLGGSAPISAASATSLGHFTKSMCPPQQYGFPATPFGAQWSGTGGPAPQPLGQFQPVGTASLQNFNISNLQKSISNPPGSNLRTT

[5] = molecular target: Casein kinase I isoform gamma-1 (Homo sapiens) (UniProt Q9HCP0); details: Compound concentration 1.0 uM
[6] = molecular target: Ribosomal protein S6 kinase alpha-4 (Homo sapiens) (UniProt O75676); details: Compound concentration 1.0 uM
[7] = molecular target: T1, Testis-specific serine/threonine-protein kinase 1 (Homo sapiens) (UniProt Q9BXA7); details: Compound concentration 1.0 uM
T1 sequence (whole entry): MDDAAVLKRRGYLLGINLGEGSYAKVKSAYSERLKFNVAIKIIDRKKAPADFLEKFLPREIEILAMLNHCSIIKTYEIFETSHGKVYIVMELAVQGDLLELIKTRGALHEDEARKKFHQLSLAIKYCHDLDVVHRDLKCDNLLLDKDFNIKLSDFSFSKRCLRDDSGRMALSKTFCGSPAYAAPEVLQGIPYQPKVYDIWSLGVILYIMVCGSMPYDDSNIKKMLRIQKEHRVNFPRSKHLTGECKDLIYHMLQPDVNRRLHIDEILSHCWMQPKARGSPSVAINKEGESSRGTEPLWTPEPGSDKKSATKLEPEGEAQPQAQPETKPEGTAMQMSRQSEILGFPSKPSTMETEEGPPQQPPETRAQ

[8] = molecular target: Rho-associated protein kinase 1 (Homo sapiens) (UniProt Q13464); details: Compound concentration 1.0 uM
[9] = molecular target: T2, Serine/threonine-protein kinase Sgk2 (Homo sapiens) (UniProt Q9HBY8); details: Compound concentration 1.0 uM
T2 sequence (whole entry): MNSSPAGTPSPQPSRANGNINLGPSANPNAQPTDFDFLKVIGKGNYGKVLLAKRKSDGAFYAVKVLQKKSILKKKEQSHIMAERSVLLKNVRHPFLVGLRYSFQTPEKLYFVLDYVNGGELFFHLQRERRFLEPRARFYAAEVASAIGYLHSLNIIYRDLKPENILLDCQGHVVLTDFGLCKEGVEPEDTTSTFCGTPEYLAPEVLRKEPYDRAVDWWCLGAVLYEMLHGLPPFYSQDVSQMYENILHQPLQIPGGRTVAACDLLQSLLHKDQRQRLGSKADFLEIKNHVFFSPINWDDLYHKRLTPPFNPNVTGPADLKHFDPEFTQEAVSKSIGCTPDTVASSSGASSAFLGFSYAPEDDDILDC

[10] = molecular target: Serine/threonine-protein kinase SIK1 (Homo sapiens) (UniProt P57059); details: Compound concentration 1.0 uM
Chain of Serine/threonine-protein kinase SIK1 (Homo sapiens) (P57059 whole entry): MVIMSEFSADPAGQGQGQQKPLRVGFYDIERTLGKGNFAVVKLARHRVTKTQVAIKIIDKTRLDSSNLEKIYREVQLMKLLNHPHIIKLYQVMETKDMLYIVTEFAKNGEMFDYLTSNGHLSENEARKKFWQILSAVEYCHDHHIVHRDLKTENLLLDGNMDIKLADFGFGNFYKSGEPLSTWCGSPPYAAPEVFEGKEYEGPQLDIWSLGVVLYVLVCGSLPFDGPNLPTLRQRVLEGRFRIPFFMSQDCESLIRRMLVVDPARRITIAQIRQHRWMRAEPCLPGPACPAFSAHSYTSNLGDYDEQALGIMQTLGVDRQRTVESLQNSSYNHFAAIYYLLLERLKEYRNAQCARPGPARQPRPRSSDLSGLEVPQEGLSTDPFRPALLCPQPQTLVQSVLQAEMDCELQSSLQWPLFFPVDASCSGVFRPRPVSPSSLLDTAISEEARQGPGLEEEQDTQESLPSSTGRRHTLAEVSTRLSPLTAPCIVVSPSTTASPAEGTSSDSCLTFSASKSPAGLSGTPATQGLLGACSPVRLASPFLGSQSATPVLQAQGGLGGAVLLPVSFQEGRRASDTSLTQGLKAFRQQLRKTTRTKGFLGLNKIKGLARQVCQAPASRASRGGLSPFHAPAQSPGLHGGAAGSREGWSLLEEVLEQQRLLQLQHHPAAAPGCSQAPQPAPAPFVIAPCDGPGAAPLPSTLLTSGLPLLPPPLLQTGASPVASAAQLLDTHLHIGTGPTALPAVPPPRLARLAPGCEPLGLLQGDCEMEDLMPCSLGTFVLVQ

[11] = molecular target: T3, Serine/threonine-protein kinase tousled-like 1 (Homo sapiens) (UniProt Q9UKI8); details: Compound concentration 1.0 uM
T3 sequence (whole entry): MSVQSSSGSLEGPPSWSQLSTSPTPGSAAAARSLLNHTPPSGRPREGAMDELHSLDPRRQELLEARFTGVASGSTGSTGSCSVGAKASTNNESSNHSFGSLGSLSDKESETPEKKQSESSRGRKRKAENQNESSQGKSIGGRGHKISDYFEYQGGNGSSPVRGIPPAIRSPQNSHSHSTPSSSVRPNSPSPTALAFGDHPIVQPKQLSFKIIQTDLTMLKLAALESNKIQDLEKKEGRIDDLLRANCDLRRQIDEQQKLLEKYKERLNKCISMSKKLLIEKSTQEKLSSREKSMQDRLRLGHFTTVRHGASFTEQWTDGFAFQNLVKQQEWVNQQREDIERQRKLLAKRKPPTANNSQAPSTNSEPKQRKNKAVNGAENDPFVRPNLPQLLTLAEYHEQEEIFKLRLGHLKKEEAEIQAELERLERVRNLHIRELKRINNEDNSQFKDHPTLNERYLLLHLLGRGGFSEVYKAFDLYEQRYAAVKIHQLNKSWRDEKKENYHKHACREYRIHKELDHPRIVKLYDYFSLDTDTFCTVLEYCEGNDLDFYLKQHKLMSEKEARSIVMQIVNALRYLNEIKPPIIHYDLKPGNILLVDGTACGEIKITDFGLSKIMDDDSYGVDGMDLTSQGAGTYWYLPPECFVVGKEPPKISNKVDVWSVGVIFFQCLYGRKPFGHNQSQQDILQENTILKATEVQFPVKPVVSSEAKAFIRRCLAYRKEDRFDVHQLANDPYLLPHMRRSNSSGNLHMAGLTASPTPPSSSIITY

[12] = molecular target: G protein-coupled receptor kinase 5 (Homo sapiens) (UniProt P34947); details: Compound concentration 1.0 uM
[13] = molecular target: Calcium/calmodulin-dependent protein kinase type II subunit delta (Homo sapiens) (UniProt Q13557); details: Compound concentration 1.0 uM
[14] = molecular target: T4, Inhibitor of nuclear factor kappa-B kinase subunit alpha (Homo sapiens) (UniProt O15111); details: Compound concentration 1.0 uM
T4 sequence (whole entry): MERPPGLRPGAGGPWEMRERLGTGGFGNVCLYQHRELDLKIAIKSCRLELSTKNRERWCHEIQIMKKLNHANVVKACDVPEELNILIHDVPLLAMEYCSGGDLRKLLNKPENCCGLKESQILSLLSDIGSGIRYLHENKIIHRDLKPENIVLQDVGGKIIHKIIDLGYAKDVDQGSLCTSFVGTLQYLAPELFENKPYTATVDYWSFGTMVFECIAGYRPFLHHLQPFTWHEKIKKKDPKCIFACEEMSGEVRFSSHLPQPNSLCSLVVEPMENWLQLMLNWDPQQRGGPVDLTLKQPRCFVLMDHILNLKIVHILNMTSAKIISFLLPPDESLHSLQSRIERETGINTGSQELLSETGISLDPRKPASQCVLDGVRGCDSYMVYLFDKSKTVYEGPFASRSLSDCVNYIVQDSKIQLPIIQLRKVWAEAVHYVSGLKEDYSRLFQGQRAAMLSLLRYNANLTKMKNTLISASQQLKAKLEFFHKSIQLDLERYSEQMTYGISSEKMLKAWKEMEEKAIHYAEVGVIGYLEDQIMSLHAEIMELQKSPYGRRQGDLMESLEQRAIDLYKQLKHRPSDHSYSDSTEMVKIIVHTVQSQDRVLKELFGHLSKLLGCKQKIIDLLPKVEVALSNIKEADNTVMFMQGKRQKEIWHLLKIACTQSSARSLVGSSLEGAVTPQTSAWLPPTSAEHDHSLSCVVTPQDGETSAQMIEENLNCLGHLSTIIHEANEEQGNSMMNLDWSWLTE

[15] = molecular target: Proto-oncogene tyrosine-protein kinase Src (Homo sapiens) (UniProt P12931); details: Compound concentration 1.0 uM
Chain of Proto-oncogene tyrosine-protein kinase Src (Homo sapiens) (P12931 2-536 limits assumed): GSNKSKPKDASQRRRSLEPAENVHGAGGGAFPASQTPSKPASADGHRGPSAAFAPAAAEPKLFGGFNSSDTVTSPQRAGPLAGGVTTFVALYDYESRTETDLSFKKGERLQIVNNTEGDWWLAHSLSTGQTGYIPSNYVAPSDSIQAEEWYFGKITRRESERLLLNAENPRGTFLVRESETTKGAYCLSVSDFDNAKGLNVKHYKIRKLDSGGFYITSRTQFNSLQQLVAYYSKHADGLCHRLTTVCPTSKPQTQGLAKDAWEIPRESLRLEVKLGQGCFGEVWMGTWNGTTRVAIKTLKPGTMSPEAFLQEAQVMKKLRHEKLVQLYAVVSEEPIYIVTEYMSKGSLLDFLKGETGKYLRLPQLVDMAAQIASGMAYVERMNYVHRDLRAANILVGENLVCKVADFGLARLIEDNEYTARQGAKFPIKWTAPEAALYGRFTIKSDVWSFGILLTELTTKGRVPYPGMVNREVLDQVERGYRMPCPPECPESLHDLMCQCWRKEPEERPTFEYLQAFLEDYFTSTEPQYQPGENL

Chain of Vascular endothelial growth factor receptor 1 (Homo sapiens) (P17948 whole entry): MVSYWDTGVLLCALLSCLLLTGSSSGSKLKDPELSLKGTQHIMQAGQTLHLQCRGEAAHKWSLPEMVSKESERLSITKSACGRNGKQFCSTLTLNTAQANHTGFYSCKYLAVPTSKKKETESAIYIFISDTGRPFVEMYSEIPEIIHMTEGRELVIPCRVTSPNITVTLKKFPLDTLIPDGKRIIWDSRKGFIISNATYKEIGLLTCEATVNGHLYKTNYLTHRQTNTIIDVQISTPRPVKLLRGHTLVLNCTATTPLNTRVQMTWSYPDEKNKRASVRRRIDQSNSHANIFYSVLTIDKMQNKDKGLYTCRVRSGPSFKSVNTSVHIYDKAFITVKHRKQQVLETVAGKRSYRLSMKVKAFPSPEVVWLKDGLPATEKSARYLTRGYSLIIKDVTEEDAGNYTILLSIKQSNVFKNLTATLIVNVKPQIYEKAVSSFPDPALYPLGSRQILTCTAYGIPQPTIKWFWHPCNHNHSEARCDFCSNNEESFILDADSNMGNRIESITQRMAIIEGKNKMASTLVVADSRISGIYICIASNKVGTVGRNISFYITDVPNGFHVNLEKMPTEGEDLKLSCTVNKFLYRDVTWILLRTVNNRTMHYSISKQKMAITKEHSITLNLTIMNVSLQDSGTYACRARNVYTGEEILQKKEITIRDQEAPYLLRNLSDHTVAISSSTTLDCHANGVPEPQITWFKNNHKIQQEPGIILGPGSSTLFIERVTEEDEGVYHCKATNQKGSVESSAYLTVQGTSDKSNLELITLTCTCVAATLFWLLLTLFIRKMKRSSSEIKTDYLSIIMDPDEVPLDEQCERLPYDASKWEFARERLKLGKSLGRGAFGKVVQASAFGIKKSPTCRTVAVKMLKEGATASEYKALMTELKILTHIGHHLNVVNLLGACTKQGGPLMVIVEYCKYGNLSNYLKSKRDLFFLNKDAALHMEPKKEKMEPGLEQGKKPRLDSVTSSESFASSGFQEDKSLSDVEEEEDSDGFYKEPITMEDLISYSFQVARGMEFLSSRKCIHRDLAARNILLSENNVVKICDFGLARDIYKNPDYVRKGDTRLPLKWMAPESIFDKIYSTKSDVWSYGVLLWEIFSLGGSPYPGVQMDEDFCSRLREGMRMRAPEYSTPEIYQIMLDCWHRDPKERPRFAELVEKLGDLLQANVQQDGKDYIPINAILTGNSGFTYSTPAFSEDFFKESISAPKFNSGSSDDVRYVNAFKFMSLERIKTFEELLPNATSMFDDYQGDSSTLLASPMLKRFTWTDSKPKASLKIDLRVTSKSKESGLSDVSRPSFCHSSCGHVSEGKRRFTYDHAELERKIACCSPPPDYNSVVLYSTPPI

Cc1nc(C2CCN(C(=O)c3ccc(OC(F)(F)F)cc3N)CC2)c2ncc(N3CCN(C)CC3)cc2n1 [BAY-693]
inactive: inhibition [1] 2.97% | inhibition [2] 24.6%

CN1CCN(c2cnc3c(C4CCN(C(=O)c5ccc(OC(F)(F)F)cc5N)CC4)ncnc3c2)CC1 [BAY-885]
inactive: % residual kinase activity [3] 108% | % residual kinase activity [4] 105% | % residual kinase activity [5] 105% | % residual kinase activity [6] 107% | % residual kinase activity [7] 107% | % residual kinase activity [8] 112% | % residual kinase activity [9] 89% | % residual kinase activity [10] 99% | % residual kinase activity [11] 106% | % residual kinase activity [12] 85% | % residual kinase activity [13] 95% | % residual kinase activity [14] 99% | % residual kinase activity [15] 113%
